Measured values: patent US4294833A, “Substituted 4-hydroxy-isophthalic acid picolylamides having a pharmaceutical activity in thromboembolic disorders” (Societa Italo-Britannica, priority 1977, dated 1981)

Tests used:
[1] = test system: platelet aggregation induced by ADP; experiment: Platelet aggregation inhibitory activity in vivo (Born aggregometer), ADP-induced; parameters: species or system New Zealand rabbits; conditions: Oryctolagus cuniculus, Platelet, ip, dose for 50% inhibition of ADP-induced aggregation curve; rabbits, intraperitoneal, blood 2, 4 and 6 hours after injection; read-out: platelet antiaggregant activity (AAP), DI50, ADP
Method: (§1) Determination of the platelet aggregation inhibitory activity in vivo
(§2) The activity of the above described compounds as platelet antiaggregant was tested in vivo on rabbits, by the Born aggregometer. The inhibition of the aggregation curve induced by ADP and thrombin was assessed with different drug concentrations according to the platelet reactivity. New Zealand rabbits which had been held fasting for 12 hours with water ad libitum, were anaesthetized with Nembutal in a dose of 35 mg/kg intramuscolarly. The blood was withdrawn from the carotidal arthery, before (control) and 2, 4, and 6 hours after the intraperitoneal injection of the compounds under examination (at the dose indicated below). The blood samples were taken up in a 3.8% aqueous solution of sodium citrate in a ratio 10:1 and thereupon centrifuged at 1500 r.p.m. for 10 minutes, for obtaining a PRP (platelet rich plasma). A portion of such a plasma was thereupon centrifuged at 8000 r.p.m. for 10 minutes, for obtaining a PPP (platelet lean plasma) which was used for zeroing the measuring apparatus.
(§3) From the results of said experiments, there was determined the dose of each product in mg/kg body weight able to induce a 50% inhibition of the aggregation curve (DI50) after treatment, referred to the curve obtained by the same control plasma before treatment.
(§4) In tables I and II are further indicated for each compound the method of preparation; the melting point PF in °C; the platelet antiaggregant activity (AAP) expressed in terms of DI50 in mg/kg, referred to ADP and thrombin respectively; the antithrombin activity (AT) in %; the anticoagulant activity (AC) in %; the fibrinolytic activity (FL) in %; the acute toxicity (LD50) in mice, intraperitoneally, in mg/kg, as previously defined.

[2] = test system: platelet aggregation induced by thrombin; experiment: Platelet aggregation inhibitory activity in vivo (Born aggregometer), thrombin-induced; parameters: species or system New Zealand rabbits; conditions: Oryctolagus cuniculus, Platelet, ip, dose for 50% inhibition of thrombin-induced aggregation curve; rabbits, intraperitoneal, blood 2, 4 and 6 hours after injection; read-out: platelet antiaggregant activity (AAP), DI50, Thrombin
Method: as §1, §2, §3, §4

[3] = test system: thrombin-induced coagulation of platelet rich plasma; experiment: Antithrombin activity on PRP, Hartert's thromboelastograph; type: in vivo, New Zealand rabbits; conditions: Oryctolagus cuniculus, Platelet, ip, percent decrease of index ma/[r+k] vs before treatment; 20 mg/kg intraperitoneal, rabbits
Method: Determination of the antithrombin activity
The antithrombin activity on the PRP (platelet rich plasma) obtained following the above described method was assessed by Hartert's thromboelastograph (Hellige model). The coagulation was induced by adding to 0.25 ml of plasma 0.06 ml of a thrombin solution (Roche Topostasin® per os) at 60 units*, pH 7.4**. The antithrombin activity was assessed in terms of a percent decrease of the index (ma/[r+k]) which was calculated from the thromboelastograph diagram, wherein r is the reaction time, k is the speed of the coagulum formation and ma is the maximum spread of the tong, after an intraperitoneal treatment with a dose of 20 mg/kg of each compound under examination, referred to the same index obtained before the treatment (control).
as §4

[4] = test system: CaCl2-induced plasma coagulation; experiment: Anticoagulant activity on PRP, Hartert's thromboelastograph; type: in vivo, New Zealand rabbits; conditions: Oryctolagus cuniculus, ip, percent increase of total time for coagulum formation (r+k) vs before treatment; 25 mg/kg intraperitoneal, rabbits; read-out: anticoagulant activity (AC)
Method: Determination of the anticoagulant activity
The anticoagulant activity was also assessed on PRP of animals treated as described in the preceding methods, by using again Hartert's thromboelastograph method.
The plasma coagulation was induced by adding to 0.25 ml PRP a 1.29% solution of CaCl2.
The anticoagulant effect was determined as a percent increase of the total time for the coagulum formation (the index r+k can be obtained from the thromboelastograph diagram) in a plasma after treatment, referred to the same index obtained before the treatment (control). Again the dose level was 25 mg/kg for each compound under examination, intraperitoneally.
as §4

blood coagulum = experiment: Fibrinolytic activity, Fearnley method (lysis of blood coagulum in toto); type: in vivo; conditions: Oryctolagus cuniculus, ip, 0.5 h, percent decrease of coagulum weight after 30 minutes at 37° C.; 25 mg/kg intraperitoneal, rabbits; read-out: fibrinolytic activity (FL)
Method: Determination of the fibrinolytic activity
The determination of the fibrinolytic activity was made following the Fearnley method for the lysis of the blood coagulum in toto.
0.2 ml of blood were withdrawn from the marginal vein of the ear of rabbits treated in the same way as the previously described tests, before and after an intraperitoneal injection of the compounds under test at a dose level of 25 mg/kg for each compound.
The blood samples were placed in test tubes containing 1.7 ml of phosphate buffer at pH 7.4 and 0.1 ml of thrombin (Roche Topostasin ® per os) at 50 units NIH/ml, and maintained in an ice bath. The test tubes were maintained at said temperature for 30 minutes and thereupon were transferred to a temperature controlled water bath at 37° C.
The fibrinolytic activity was determined as a percent decrease of the coagulum weight, measured after incubation for 30 minutes at 37° C.
as §4

[5] = Acute toxicity, intraperitoneal; conditions: mouse, in vivo, ip, male Swiss mice, intraperitoneal, 7 days observation; preliminary, by graphic interpolation; read-out: acute toxicity (LD50 / DL50)
Method: The acute toxicity limit was determined intraperitoneally on male Swiss mice, weighing 20±2 g, held fasting for 18 hours with water ad libitum.
The animals were maintained under observation for 7 days of treatment, by examining the general symptomatology and noting the death sequency. The preliminary DL50 in mg/kg body weight was calculated by graphic interpolation of the results as obtained.
as §4

Structure (SMILES)	ED50 [1]	ED50 [2]	inhibition in vivo at 20 mg/kg [3]	change in vivo at 25 mg/kg [4]	fibrinolytic activity (percent decrease of coagulum weight) at 25 mg/kg (blood coagulum)	LD50 at 168 h [5]
CCOc1ccc(C(=O)N(CCCC(C)C)Cc2cccnc2)cc1C(=O)N(CCCC(C)C)Cc1cccnc1 [Example 46]	34.3 mg/kg	24.7 mg/kg	32.7%	15.5%	29.1%	451 mg/kg
COc1cc(C(=O)NCc2cccnc2)cc(C(=O)NCc2cccnc2)c1OC1CCC1 [Example 19]	34.7 mg/kg	25.2 mg/kg	32.8%	15.6%	28.1%	254 mg/kg
CC=COc1c(Cl)cc(C(=O)N(CCC(C)C)Cc2cccnc2)cc1C(=O)N(CCC(C)C)Cc1cccnc1 [Example 49]	49 mg/kg	30.2 mg/kg	27.9%	15.3%	21.7%	193 mg/kg
CCN(Cc1cccnc1)C(=O)c1ccc(OC)c(C(=O)N(CC)Cc2cccnc2)c1 [Example 40]	60.2 mg/kg	42.3 mg/kg	28.9%	13.4%	20.6%	605 mg/kg
C=C(C)Oc1c(Cl)cc(C(=O)N(C)Cc2cccnc2)cc1C(=O)N(C)Cc1cccnc1 [Example 52]	49.2 mg/kg	32.1 mg/kg	29.1%	14.2%	26.7%	194 mg/kg
C=CCOc1c(Cl)cc(C(=O)NCc2cccnc2)cc1C(=O)NCc1cccnc1 [Example 25]	59.5 mg/kg	35.4 mg/kg	40.6%	15.5%	25.9%	184 mg/kg
COc1cc(C(=O)NCc2cccnc2)cc(C(=O)NCc2cccnc2)c1OC1CCCCC1 [Example 21]	35.8 mg/kg	24.5 mg/kg	32.5%	12.5%	28.3%	378 mg/kg
CCCN(Cc1cccnc1)C(=O)c1ccc(OC)c(C(=O)N(CCC)Cc2cccnc2)c1 [Example 41]	65.1 mg/kg	46.5 mg/kg	26.3%	15.8%	22.3%	620 mg/kg
COc1c(Cl)cc(C(=O)NCc2cccnc2)cc1C(=O)NCc1cccnc1 [Example 23]	63.4 mg/kg	46.9 mg/kg	22.5%	12.2%	16.8%	425 mg/kg
CCOc1ccc(C(=O)N(CCC(C)C)Cc2cccnc2)cc1C(=O)N(CCC(C)C)Cc1cccnc1 [Example 45]	30.6 mg/kg	22.3 mg/kg	35.8%	16.3%	29.9%	460 mg/kg
